# Measurements as given in US5703083A, “N-aminoalkyl-1-biphenylenyl-2-carboxamides; new dopamine receptor subtype specific ligands” (Neurogen Corporation, priority 1996, dated 1997).
# Where a name gives a salt, the structure may show the parent alone.
# Legend:
# [1] = target: D2 receptors from African Green monkey; test: D2 receptor binding (displacement of 3H-YM 09151-2); details: COS cells with recombinant D2 receptors; 0.5 nM 3H-YM 09151-2; nonspecific binding with 1 mM spiperone
# Description: (§1) Pellets of COS cells containing recombinantly produced D2 or D3 receptors from African Green monkey were used for the assays. The sample is homogenized in 100 volumes (w/vol) of 0.05M Tris HCI buffer at 4° C and pH 7.4. The sample is then centfifuged at 30,000×g and resuspended and rehomogenized. The sample is then centdfuged as described and the final tissue sample is frozen until use. The tissue is resuspended 1:20 (wt/vol) in 0.05M Tris HCl buffer containing 100 mM NaCl.
# (§2) Incubations are carried out at 48° C and contain 0.4 ml of tissue sample, 0.5 nM ^3 H-YM 09151-2 and the compound of interest in a total incubation of 1.0 ml. Nonspecific binding is defined as that binding found in the presence of 1 mM spiperone; without further additions, nonspecific binding is less than 20% of total binding. The binding characteristics of representative compounds of the invention for D2 and D3 receptor subtypes are shown in Table 2 for rat striatal homogenates.
# [2] = target: T1, D3 receptors from African Green monkey (Chlorocebus aethiops, UniProt P52703); test: D3 receptor binding (displacement of 3H-YM 09151-2); details: COS cells with recombinant D3 receptors; 0.5 nM 3H-YM 09151-2; nonspecific binding with 1 mM spiperone
# T1 construct: expressed in transfected cells; host or cells: COS cells
# T1 sequence (P52703 whole entry): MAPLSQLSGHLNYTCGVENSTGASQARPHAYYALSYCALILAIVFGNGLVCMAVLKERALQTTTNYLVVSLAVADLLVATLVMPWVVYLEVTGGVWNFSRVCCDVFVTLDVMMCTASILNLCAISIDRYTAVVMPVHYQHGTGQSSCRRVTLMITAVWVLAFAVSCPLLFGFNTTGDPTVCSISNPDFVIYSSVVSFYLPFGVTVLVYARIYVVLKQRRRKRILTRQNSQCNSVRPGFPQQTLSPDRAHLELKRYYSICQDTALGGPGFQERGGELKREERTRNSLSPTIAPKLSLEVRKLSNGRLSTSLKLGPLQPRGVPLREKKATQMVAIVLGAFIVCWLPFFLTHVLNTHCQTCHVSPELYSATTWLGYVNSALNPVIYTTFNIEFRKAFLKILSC
# Description: as §1, §2
Ki [1],Ki [2],SMILES
323 nM,5 nM,"COc1ccccc1N1CCN(CCCCNC(=O)c2ccc3c(c2)-c2ccccc2-3)CC1 [Compound 1, 1-(2-Methoxyphenyl)-4-{4-[N-(1-biphenylene-2-carboxamido)]butyl}piperazine]"
138 nM,3 nM,"O=C(NCCCCN1CCN(c2cccc3ccccc23)CC1)c1ccc2c(c1)-c1ccccc1-2 [Compound 3, 1-(1-Napthyl)-4-{4-[N-(1-biphenylene-2-carboxamido)]butyl}piperazine dihydrochloride]"
> 100 nM,15 nM,"O=C(NCCCCN1CCN(c2nccc3ccccc23)CC1)c1ccc2c(c1)-c1ccccc1-2 [Compound 4, 1-(1-Isoquinolyl)-4-{4-[N-(1-biphenylene-2-carboxamido)]butyl}piperazine d ihydrochloride]"
